Laboratory results as given in PubChem BioAssay (NCI).
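Protocol summary: plate cells (96-well), add compound at 5 concentrations, incubate 48 h, interpolate endpoints linearly. GI50 is the concentration that inhibits growth by half. TGI denotes the concentration required for complete inhibition of growth.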

How the values were obtained:
Experiment in all cases: DTP human tumour cell line panel, 48 h
[1] = test system: 786-0 renal
[2] = test system: HCT-15 colon
[3] = test system: HOP-62 NSCLC
[4] = test system: IGROV1 ovarian
[5] = test system: K-562 leukemia
[6] = test system: MDA-MB-231 breast
[7] = test system: NCI-H522 lung
[8] = test system: OVCAR-3 ovarian
[9] = test system: SF-539 CNS
[10] = test system: SW-620 colon

With `CCN(CC)CCOc1ccc(/C=C2\C[C@H]3[C@H]4CC=C5C[C@@H](O)CC[C@]5(C)[C@H]4CC[C@]3(C)[C@H]2O)cc1OC` the GI50 [1] was 5.09 µM, the TGI [1] was 16.1 µM and the GI50 [2] was 9.19 µM. It also gave a TGI [2] of 18.5 µM, a GI50 [3] of 8.89 µM and a TGI [3] of 22.8 µM. It also gave a GI50 [4] of 1.23 µM, a TGI [4] of over 50 µM and a GI50 [5] of 8.09 µM. It also gave a TGI [5] of 32 µM, a GI50 [6] of 6.94 µM and a TGI [6] of 14.2 µM. It also gave a GI50 [7] of 0.216 µM, a TGI [7] of over 50 µM and a GI50 [8] of 7.96 µM. It also gave a TGI [8] of 17.8 µM, a GI50 [9] of 1.43 µM and a TGI [9] of 9.82 µM. It also gave a GI50 [10] of 1.93 µM and a TGI [10] of 11.7 µM.
For `O=C(O)C1C2C=CC(C2)C1C(=O)O` (stereo unspecified), the GI50 [1] was over 100 µM, the TGI [1] was over 100 µM and the GI50 [2] was over 100 µM. It also gave a TGI [2] of over 100 µM, a GI50 [3] of over 100 µM and a TGI [3] of over 100 µM. The GI50 [4] was over 100 µM, the TGI [4] was over 100 µM and the GI50 [5] was over 100 µM. The TGI [5] was over 100 µM, the GI50 [6] was over 100 µM and the TGI [6] was over 100 µM. The GI50 [7] was over 100 µM, the TGI [7] was over 100 µM and the GI50 [8] was over 100 µM. It also gave a TGI [8] of over 100 µM, a GI50 [9] of over 100 µM and a TGI [9] of over 100 µM. The GI50 [10] was over 100 µM and the TGI [10] was over 100 µM.
`NCCCn1c2c(c3ccc([N+](=O)[O-])cc3c1=O)C(=O)c1cc(-c3ccccc3)ccc1-2` gave a GI50 [1] of 0.181 µM, a TGI [1] of 0.334 µM and a GI50 [2] of 0.187 µM. For the same compound, the TGI [2] was 0.365 µM, the GI50 [3] was 0.406 µM and the TGI [3] was 1.46 µM. It also gave a GI50 [5] of 0.0443 µM, a TGI [5] of 0.185 µM and a GI50 [6] of 1.29 µM. For the same compound, the TGI [6] was 2.85 µM, the GI50 [7] was 0.22 µM and the TGI [7] was 0.467 µM. The GI50 [8] was 1.65 µM, the TGI [8] was 3.1 µM and the GI50 [9] was 1.37 µM. The TGI [9] was 2.84 µM, the GI50 [10] was 0.182 µM and the TGI [10] was 0.336 µM.
Work on `NCCCCCCCCCCCn1c2c(c3ccccc3c1=O)C(=O)c1ccccc1-2` yielded a GI50 [1] of 19.9 µM, a TGI [1] of 46.9 µM and a GI50 [2] of 5.58 µM. The TGI [2] was 19.4 µM, the GI50 [3] was 2.19 µM and the TGI [3] was 4.83 µM. For the same compound, the GI50 [5] was 2.31 µM, the TGI [5] was 4.58 µM and the GI50 [6] was 3.75 µM. The TGI [6] was 15.2 µM, the GI50 [7] was 3.39 µM and the TGI [7] was 10.4 µM. The GI50 [8] was 2.1 µM, the TGI [8] was 5.96 µM and the GI50 [9] was 20.6 µM. For the same compound, the TGI [9] was 40.2 µM, the GI50 [10] was 1.96 µM and the TGI [10] was 3.76 µM.
`O=C1CCCCC=C1C[N+](=O)[O-]` showed a GI50 [1] of 17.6 µM, a TGI [1] of 39.6 µM and a GI50 [2] of 13.5 µM. The TGI [2] was 35.8 µM, the GI50 [3] was 15.1 µM and the TGI [3] was 45.6 µM. It also gave a GI50 [4] of 33 µM, a TGI [4] of over 100 µM and a GI50 [5] of 22.5 µM. The TGI [5] was over 100 µM, the GI50 [6] was 22.2 µM and the TGI [6] was 49.4 µM. It also gave a GI50 [7] of 14.6 µM, a TGI [7] of 37 µM and a GI50 [8] of 23.9 µM. For the same compound, the TGI [8] was 69.1 µM, the GI50 [9] was 27.7 µM and the TGI [9] was 74.2 µM. It also gave a GI50 [10] of 5.9 µM and a TGI [10] of 26.1 µM.
`CN1CC[C@]2(c3cccc(O)c3)CC(=O)/C(=C/c3ccccc3)[C@H]1C2` was tested, and the GI50 [1] was 3.21 µM, the TGI [1] was 10.1 µM and the GI50 [2] was 2.5 µM. It also gave a TGI [2] of 10.6 µM, a GI50 [3] of 3.21 µM and a TGI [3] of 10.8 µM. For the same compound, the GI50 [4] was 3.38 µM, the TGI [4] was 12.6 µM and the TGI [5] was 17.7 µM. For the same compound, the TGI [6] was 8.08 µM, the TGI [7] was 7.76 µM and the GI50 [8] was 2.64 µM. The TGI [8] was 6.95 µM, the TGI [9] was 5.2 µM and the TGI [10] was 11.9 µM.
